Converted amounts (≈) assume the structure as drawn.

The values that follow come from patent US7557123B2, “Heterocyclic compound and medicinal use thereof” (Kyoto Pharmaceutical Industries, Ltd., priority 2001, dated 2009).

For one data set, the system named is male KK-A^y mice. The data set is described as follows: Hypoglycemic and hypolipidemic activity in spontaneously diabetic KK-Ay mice. Type of data set: in vivo. Particulars: 10 mg/kg/day orally for 4 consecutive days, plasma 24 hours after final administration, non-fasting, vs control group. On the procedure:
Blood was drawn under a non-fasting state from the tail vein of male KK-A^y mice, and the glucose and triglyceride levels of the plasma were measured using commercially available assay kits (glucose CII-test WAKO and triglyceride G-test WAKO, Wako Pure Chemical Industries, Ltd.). The mice were grouped (5 mice per group) into a control group and an administration group, such that the mean and standard deviation of the body weight and the plasma glucose and plasma triglyceride levels in each group were nearly the same. The test compounds (compounds of Examples 1, 2, 4, 8, 20, 22, 24, 27, 30, 33, 36, 37, 40, 45, 47, 52, 56, 58 and 64) were suspended in 5% gum arabic solution and administered (10 mg/kg/day) orally to the administration group for 4 consecutive days. The 5% gumarabic solution was orally administered to the control group. Blood was drawn under a non-fasting state from the tail vein 24 hours after the final administration and the glucose and triglyceride levels of the plasma were measured. The decrease in the plasma glucose and triglyceride levels was calculated from the following formula. Decrease (%)=[(mean of control group−mean of test compound administration group)/mean of control group]×100 Results

For the next data set, the system named is male ICR mice. Nature of the data set: Toxicity by repeat administration in ICR mice. Type of data set: in vivo. The note with it: 30 and 100 mg/kg/day orally for 2 consecutive weeks, vs control group; for plasma volume: calculated from Evans blue concentration; for weight of the heart / weight of the liver: wet weight. On the procedure: Using 7-week-old male ICR mice, toxicity by repeat administration was examined.
The mice were grouped (7 mice per group) into a control group and test compound (compounds of Examples 2 and 20) administration groups (30 and 100 mg/kg/day), such that the mean and the standard deviation of the body weight of the mice were nearly the same. The test compound was suspended in 0.5% methylcellulose solution and administered orally for 2 consecutive weeks from the next day. The 0.5% methylcellulose solution was orally administered to the control group. At 24 hours after the final administration, Evans blue (100 μg/mouse) was administered from the tail vein and, 5 min later, the blood was drawn from the orbital venous plexus with anesthesia. Using EDTA-added blood, hematocrit value and erythrocyte count were measured. Using the plasma, Evans blue concentration was measured, from which plasma volume was calculated. The liver and heart were removed and wet weight was measured.

The test system of a further data set is female Wistar rats. Nature of the data set: Toxicity by repeat administration in Wistar rats. Particulars: 30 and 100 mg/kg/day orally for 2 consecutive weeks, vs control group; for ALT (GPT) / AST (GOT): serum; for weight of the heart / weight of the liver / weight of the white fat around the uterus: wet weight. The format is in vivo. On the procedure: Using 6-week-old female Wistar rats, toxicity by repeat administration was examined.
The rats were grouped (6 rats per group) into a control group and test compound (compounds of Examples 2 and 20) administration groups (30 and 100 mg/kg/day), such that the mean and the standard deviation of the body weight of the rats were nearly the same. The test compound was suspended in 0.5% methylcellulose solution and administered orally for 2 consecutive weeks from the next day. The 0.5% methylcellulose solution was orally administered to the control group. The rats were fasted for 16 hr from the last day of administration, anesthetized by intraperitoneal administration of pentobarbital sodium (50 mg/kg) 24 hr after the final administration and the blood was drawn. Using EDTA-added blood, hematocrit value and erythrocyte count were measured, and using serum, AST (GOT) and ALT (GPT) were measured. In addition, the white fat around the uterus, and the liver and heart were removed and the wet weights thereof were measured.

Data set [1] is described as follows: Solubility of the compound in water (buffer pH 7.0). The format is physicochemical. The note with it: 25 mg in 1.0 ml buffer pH 7.0, shaken at 25° C. for 1 hr, filtrate by HPLC. On the procedure:
The pulverized test compound (compounds of Examples 2, 20, 22, 24, 27, 30, 40 or 65, 25 mg) was added to a buffer (1.0 ml, pH 7.0) and the mixture was shaken at 25° C. for 1 hr and passed through a membrane filter. The concentration of the test compound in the filtrate was measured by high performance liquid chromatography.

The test system of the next data set is male db/db mice. The data set is described as follows: Hypoglycemic and hypolipidemic activity in db/db mice. The note with it: 3 mg/kg/day orally for 2 consecutive weeks, plasma 24 hours after final administration, non-fasting, vs control group. Type of data set: in vivo. The procedure:
Using db/db mice genetically showing high plasma glucose, hypertriglyceridemia, insulin resistance and obesity, the pharmacological activity of the test compounds of Examples 1, 2 and 20 was examined.
Blood was drawn under a non-fasting state from the tail vein of male db/db mice, the glucose level and triglyceride level of the plasma were measured using commercially available assay kits (glucose CII-test WAKO and triglyceride G-test WAKO, Wako Pure Chemical Industries, Ltd.). The mice were grouped (6 mice per group) into a control group and test compound (compounds of Examples 1, 2 and 20) administration group (3 mg/kg/day), such that the mean and standard deviation of the body weight and the plasma glucose and plasma triglyceride levels in each group were nearly the same. The test compound was suspended in 0.5% methylcellulose solution and administered orally for 2 consecutive weeks from the next day. The 0.5% methylcellulose solution was orally administered to the control group. Blood was drawn under a non-fasting state from the tail vein 24 hours after the final administration and the glucose and triglyceride levels of the plasma were measured. The decrease in the plasma glucose and triglyceride levels was calculated from the following formula. Decrease (%)=[(mean of control group−mean of test compound administration group)/mean of control group]×100 Results

What is called Solubility is the dissolved amount per volume that the medium holds. A high value points to much dissolved substance. On to `CC=CC=CC(=O)N1Cc2cc(OCCc3nc(/C=C/CCC)oc3C)ccc2C[C@H]1C(=O)O` (stereo in doubt) [Example 2, 2-(2,4-hexadienoyl)-7-[2-(5-methyl-2-(trans-1-penten-1-yl)oxazol-4-yl)ethoxy]-1,2,3,4-tetrahydroisoquinoline-(3S)-carboxylic acid], for which, in the data set on male KK-A^y mice, the “Decrease (%) in glucose level” value was determined as 40.3% and the “Decrease (%) in triglyceride level” value was found to be 40.5%. Also, in the data set on male ICR mice, the plasma volume result is “no significant difference”, the body weight result is listed as “no significant difference”, the erythrocyte count result is on record as “no significant difference” and the hematocrit value entry is recorded as “no significant difference”. Further, in the data set on male ICR mice, the “weight of the heart” value is “no significant difference” and the “weight of the liver” value is recorded as “no significant difference”. Also, in the data set on female Wistar rats, the “ALT (GPT)” value is recorded as “no significant difference”, the “AST (GOT)” value is listed as “no significant difference”, the erythrocyte count result was “no significant difference” and the hematocrit value result was “no significant difference”. In the data set on female Wistar rats, the “weight of the heart” value is on record as “no significant difference”, the “weight of the liver” value is “no significant difference” and the “weight of the white fat around the uterus” value is on record as “no significant difference”. In addition, the “Solubility” value in data set [1] was 10000 µg/mL (≈ 21.5 mM). Further, in the data set on male db/db mice, the “Decrease (%) in glucose level” value was found to be 57.2% and the “Decrease (%) in triglyceride level” value came out at 78.1%.
Regarding `CC(C)(C)N.CC=CC=CC(=O)N1Cc2cc(OCCc3nc(/C=C/CC(C)C)oc3C)ccc2C[C@H]1C(=O)O` (stereo in doubt) [Example 20, tert-butylamine 2-(2,4-hexadienoyl)-7-{2-[5-methyl-2-(4-methyl-trans-1-penten-1-yl)oxazol-4-yl]ethoxy}-1,2,3,4-tetrahydroisoquinoline-(3S)-carboxylate], in the data set on male KK-A^y mice, the “Decrease (%) in glucose level” value worked out at 57.7% and the “Decrease (%) in triglyceride level” value is on record as 65.6%. In the data set with male ICR mice, the plasma volume entry is reported as “no significant difference”, the body weight result is “no significant difference”, the erythrocyte count entry was “no significant difference” and the hematocrit value result was “no significant difference”. In addition, in the data set with male ICR mice, the “weight of the heart” value is recorded as “no significant difference” and the “weight of the liver” value is reported as “no significant difference”. In addition, in the data set on female Wistar rats, the “ALT (GPT)” value is reported as “no significant difference”, the “AST (GOT)” value is listed as “no significant difference”, the erythrocyte count result is “no significant difference” and the hematocrit value entry is “no significant difference”. Besides, in the data set with female Wistar rats, the “weight of the heart” value is reported as “no significant difference”, the “weight of the liver” value was “no significant difference” and the “weight of the white fat around the uterus” value is “no significant difference”. The “Solubility (mg/ml)” value in data set [1] is recorded as 25 or above mg/ml. Besides, in the data set with male db/db mice, the “Decrease (%) in glucose level” value is 54.0% and the “Decrease (%) in triglyceride level” value is listed as 72.0%.
